From patent US7470716B2, “Imidazoles and triazoles, their preparation, and their use as pharmaceutical compositions” (Boehringer Ingelheim International GmbH, priority 2004, dated 2008)

What was measured:
DPP-IV = molecular target: T1, DPP-IV (Homo sapiens, UniProt P27487); test: DPP-IV assay with Caco-2 cell extract as DPP IV source, AFC substrate, fluorescence; type: biochemical; conditions: extract of human colon carcinoma cell line Caco-2; substrate 100 μM; 60 minutes at ambient temperature; read-out: DPP IV inhibition IC50
T1 construct: an extract of the human colon carcinoma cell line Caco-2 is used as the DPP IV source; endogenous in cells; host or cells: Caco-2 (human colon carcinoma), differentiated to induce DPP-IV expression; Nonidet-P40 solubilised extract
T1 sequence (P27487 whole entry): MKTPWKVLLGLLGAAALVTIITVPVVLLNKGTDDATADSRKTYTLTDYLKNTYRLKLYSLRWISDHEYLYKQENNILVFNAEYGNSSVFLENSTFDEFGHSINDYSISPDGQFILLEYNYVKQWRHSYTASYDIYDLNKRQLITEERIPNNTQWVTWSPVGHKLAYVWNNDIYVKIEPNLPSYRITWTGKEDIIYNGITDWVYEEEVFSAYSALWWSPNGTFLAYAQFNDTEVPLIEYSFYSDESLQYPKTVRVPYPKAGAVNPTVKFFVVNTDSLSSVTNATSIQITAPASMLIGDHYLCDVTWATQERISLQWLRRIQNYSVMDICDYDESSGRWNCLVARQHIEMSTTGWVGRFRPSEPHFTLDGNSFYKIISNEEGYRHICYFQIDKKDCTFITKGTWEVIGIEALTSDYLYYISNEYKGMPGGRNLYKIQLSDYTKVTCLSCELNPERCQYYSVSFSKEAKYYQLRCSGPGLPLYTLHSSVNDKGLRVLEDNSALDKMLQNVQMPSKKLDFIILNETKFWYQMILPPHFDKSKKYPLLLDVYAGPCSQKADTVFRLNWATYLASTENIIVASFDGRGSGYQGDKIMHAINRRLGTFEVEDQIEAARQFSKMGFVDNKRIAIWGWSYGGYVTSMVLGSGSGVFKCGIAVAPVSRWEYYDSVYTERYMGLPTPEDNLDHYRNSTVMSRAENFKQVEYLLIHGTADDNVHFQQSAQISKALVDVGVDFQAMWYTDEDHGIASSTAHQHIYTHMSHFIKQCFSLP
Protocol: The cell extract was obtained from cells solubilised in a buffer (10 mM Tris HCl, 0.15 M NaCl, 0.04 t.i.u. aprotinin, 0.5% Nonidet-P40, pH 8.0) by centrifugation at 35,000 g for 30 minutes at 4° C. (to remove cell debris).
The DPP-IV assay was carried out as follows:
50 μl of substrate solution (AFC; AFC is amido-4-trifluoromethylcoumarin), final concentration 100 μM, were placed in black microtitre plates. 20 μl of assay buffer (final concentrations 50 mM Tris HCl pH 7.8, 50 mM NaCl, 1% DMSO) was pipetted in. The reaction was started by the addition of 30 μl of solubilised Caco-2 protein (final concentration 0.14 μg of protein per well). The test substances under investigation were typically added prediluted to 20 μl, while the volume of assay buffer was then reduced accordingly. The reaction was carried out at ambient temperature, the incubation period was 60 minutes. […] Dummy values (corresponding to 0% activity) were obtained in mixtures with no Caco-2 protein (volume replaced by assay buffer), control values (corresponding to 100% activity) were obtained in mixtures without any added substance.

rats = test: Tolerability: behavior of rats after oral administration; type: in vivo; conditions: oral administration of 10 mg/kg

| SMILES | IC50 (DPP-IV) [nM] | changes in the behavior of rats (tolerability) (rats) |
| --- | --- | --- |
| CC#CCn1c(C(=O)NCc2nc3ccccc3c3ccccc23)cnc1N1CCCC(N)C1 (centres unmarked) [1(2), 1-(but-2-ynyl)-2-(3-amino-piperidin-1-yl)-5-(phenanthridin-6-ylmethylaminocarbonyl)-1H-imidazole] | 41 |  |
| CC(C)=CCn1c(C(=O)NCc2cccc3ccccc23)nnc1N1CCCNCC1 [2(2), 3-([1,4]diazepan-1-yl)-4-(3-methyl-but-2-enyl)-5-(naphth-1-ylmethylaminocarbonyl)-4H-[1,2,4]triazole] | 386 |  |
| CC#CCn1c(C(=O)NCc2nc(C)cc3ccccc23)nnc1N1CCCC(N)C1 (centres unmarked) [Example 4(1), 3-(3-amino-piperidin-1-yl)-4-(but-2-ynyl)-5-(3-methyl-isoquinolin-1-ylmethylaminocarbonyl)-4H-[1,2,4]triazole] |  | no changes in the behavior of rats could be detected |

The next lines start with results.

| IC50 (DPP-IV) [nM] | SMILES | changes in the behavior of rats (tolerability) (rats) |
| --- | --- | --- |
| 101 | NC1CCCN(c2nnc(C(=O)NCc3cccc4ccccc34)n2Cc2ccccc2)C1 (centres unmarked) [3(1), 3-(3-amino-piperidin-1-yl)-4-benzyl-5-(naphth-1-ylmethylaminocarbonyl)-4H-[1,2,4]triazole] |  |
| 36 | CC#CCn1c(C(=O)NCc2ccc3ncccc3c2)nnc1N1CCCC(N)C1 (centres unmarked) [4(2), 3-(3-amino-piperidin-1-yl)-4-(but-2-ynyl)-5-(quinolin-6-ylmethylaminocarbonyl)-4H-[1,2,4]triazole] |  |
| 367 | CC(C)=CCn1c(C(=O)NCc2cccc3ccccc23)nnc1N1CCNCC1 [Example 2, 3-(piperazin-1-yl)-4-(3-methyl-but-2-enyl)-5-(naphth-1-ylmethylaminocarbonyl)-4H-[1,2,4]triazole] |  |
| 101 | CC(C)=CCn1c(C(=O)NCc2cccc3ccccc23)nnc1N1CCCC(N)C1 (centres unmarked) [Example 3, 3-(3-amino-piperidin-1-yl)-4-(3-methyl-but-2-enyl)-5-(naphth-1-ylmethylaminocarbonyl)-4H-[1,2,4]triazole] |  |
| 382 | NC1CCCN(c2nnc(C(=O)NCc3cccc4ccccc34)n2Cc2ccccc2Cl)C1 (centres unmarked) [Example 4, 3-(3-amino-piperidin-1-yl)-4-(2-chloro-benzyl)-5-(naphth-1-ylmethylaminocarbonyl)-4H-[1,2,4]triazole] |  |
